Experimental data taken from patent publication US10227295B2, “Selective histone deactylase 6 inhibitors” (H. LEE MOFFITT CANCER CENTER AND RESEARCH INSTITUTE, INC., priority 2013, dated 2019).
Values belong to the compound of their own block, whether it stands above or below them.

Experiments:
[1] = tested on: B16 murine melanoma cells; experiment: B16 melanoma cell growth inhibition MTS assay; assay type: cell-based; details: for GI50: Mus musculus, B16 murine melanoma cells; for GI50 / growth inhibition of B16 melanoma cells (in words): 48 h, MTS
Description: B16 murine melanoma cells were plated at 5×10^3/well in 96 well flat bottom plates. The following day, media was changed to that containing various concentrations of HDACi or matched DMSO vehicle concentrations diluted in complete medium done in triplicate. Cells were incubated for 48 hours at 37° C. and 5% CO2. […] Briefly, 20 μL of reagent were added per well and incubated at 37° C. for 3 hours. […] All values were then normalized and expressed as a percentage of medium control (100%).

[2] = tested on: acetyl-α-tubulin and acetyl-H3 in B16 melanoma cells; experiment: Tubulin and histone acetylation Western blot assay; assay type: cell-based, murine; details: low nanomolar treatment, 24 h
Description: […]. B16 melanoma cells were plated at 10^5 cells/well in 12 well plates and allowed to adhere overnight. A 50 mM stock of compound was then added by serial dilutions in complete medium to the indicated concentrations. Cells were incubated for 24 h under humidified conditions (37° C., 5% CO2). Wells were then washed with cold PBS, and cells were lysed in a buffer containing 10 mM Tris-HCl pH 8.0, 10% SDS, […], 100 mM DTT, and 1× protease inhibitor (Roche). Cells were lysed for 30 min on ice and then sonicated for 8 min (8 cycles of 30 s on/30 s rest). Cells were then boiled for 10 min with 6× gel loading buffer and resolved on 4-15% gradient gels and subsequently transferred onto nitrocellulose membranes. Membranes were blocked with 5% milk in PBS-T and detection of specific antigens using antibodies against acetyl-H3 and H3 (Cell Signaling), and acetyl-α-tubulin and α-tubulin (Sigma). Bands were detected by scanning blots with LI-COR Odyssey imaging system using both 700 and 800 channels.

[3] = tested on: acetyl-tubulin and acetyl-histone3 in human melanoma cell lines; experiment: Western blot of HDAC substrate acetylation in human melanoma cells; assay type: cell-based; details: 24 hrs
Description: Error bars represent standard deviation from triplicates. This figure is representative of three independent experiments. (F,G,H) Cell cycle analysis of melanoma WM164, WM983A and WM793 human melanoma cell lines stained with propidium iodide. Data is representative of three experiments with similar results.
To confirm the selectivity of isotype specific HDACi, Western blot analysis was performed on the acetylation status of known HDAC substrates including histone H3 and H4, which are known Class I HDAC targets, and α-tubulin, a target for HDAC6. The doses required to impart the anti-proliferative effect coincided with that needed to increase acetylation of the respective HDAC substrates (FIG. 41F-41H). […] Conversely, HDAC6 selective inhibitors (HDAC6i) increase α-tubulin acetylation but not histone acetylation (FIG. 41F).

[4] = tested on: melanoma antigens gp100, MART1, TYRP1 and TYRP2 in human melanoma cell lines; experiment: Tumor antigen expression by qRT-PCR; assay type: cell-based; details: 48 hours
Description: (D) Expression of tumor antigens was measured in human WM164 non-target and HDAC6KD cells. (E) Expression of tumor antigens mart-1 and gp-100 was measured by western blot.
In addition to direct cytotoxicity, pan-HDACi have immunologic effects on melanoma including modulation of MHC, co-stimulatory molecules, and cytokine production. In both human and murine melanoma cell lines, genetic (FIG. 43A) and pharmacologic (FIG. 43B) disruption of HDAC6 led to increased surface expression of MHC I by flow cytometry.

B16 melanoma = experiment: In vivo B16 melanoma tumor growth in C57BL/6 mice; details: 25 mg/kg, intraperitoneal, three times weekly, B16 subcutaneous
[5] = tested on: NRAS and BRAF mutant human melanoma cell lines; experiment: Human melanoma cell proliferation MTS assay; assay type: cell-based; details: 24 h, panel of human melanoma cell lines
Description: Cell proliferation was evaluated using various pan- and isotype selective HDACi in a broad panel of human melanoma cell lines. Briefly, cells were plated at 10×10^3/well in a 96 well flat bottom plate. The following day, media was changed to that containing different concentrations of HDACi or matched DMSO vehicle concentrations diluted in complete medium done in triplicate, all with a final concentration of less than 0.1% DMSO. Cells were incubated for 24 hours at 37° C. and 5% CO2. […] All values were then normalized and expressed as a percentage of medium control growth.

[6] = tested on: Human cutaneous T-cell lymphoma (CTCL) HuT-78; experiment: Cell viability CellTiter 96 Aqueous ONE, HuT-78; assay type: cell-based; details: HuT-78, 24 hrs, compared to DMSO
Description: (§1) Human cutaneous T-cell lymphoma (CTCL) HuT-78 (A), murine mantle cell lymphoma (MCL) (B), and murine melanoma B16 (C) and SM1 (D) cells were incubated with JB7-19, JB7-22, JB720 at different concentrations for 24 hrs. Cell viability was measured using CellTiter 96 Aqueous ONE solution (Promega, Madison, Wis.) and compared to DMSO treated control samples. Error bars represent standard deviation from triplicates.

[7] = tested on: murine mantle cell lymphoma (MCL); experiment: Cell viability CellTiter 96 Aqueous ONE, MCL; assay type: cell-based; details: 24 hrs, compared to DMSO
Description: as §1

murine melanoma B16 = experiment: Cell viability CellTiter 96 Aqueous ONE, B16; assay type: cell-based; details: B16, 24 hrs, compared to DMSO
Description: as §1

murine melanoma SM1 = experiment: Cell viability CellTiter 96 Aqueous ONE, SM1; assay type: cell-based; details: SM1, 24 hrs, compared to DMSO
Description: as §1

[8] = tested on: IL-10 production in murine peritoneal elicited primary macrophages (PEM); experiment: IL-10 production ELISA, PEM; assay type: cell-based; details: 24 hrs
Description: (§2) Murine peritoneal elicited primary macrophages (PEM)(A) and murine RAW264.7 (B) cells were incubated with JB7-19, JB7-22, JB720 at the concentration indicated on each chart. After 24 hrs, the production of IL-10 was measured by ELISA.

[9] = tested on: IL-10 production in murine RAW264.7 cells; experiment: IL-10 production ELISA, RAW264.7; assay type: cell-based; details: RAW264.7, 24 hrs
Description: as §2

[10] = target: human, recombinant full-length HDAC6 (Homo sapiens (Human), UniProt Q9UBN7); experiment: HDAC inhibition assay (Reaction Biology), HDAC6; assay type: biochemical
Chain of human, recombinant full-length HDAC6 (Q9UBN7 whole entry): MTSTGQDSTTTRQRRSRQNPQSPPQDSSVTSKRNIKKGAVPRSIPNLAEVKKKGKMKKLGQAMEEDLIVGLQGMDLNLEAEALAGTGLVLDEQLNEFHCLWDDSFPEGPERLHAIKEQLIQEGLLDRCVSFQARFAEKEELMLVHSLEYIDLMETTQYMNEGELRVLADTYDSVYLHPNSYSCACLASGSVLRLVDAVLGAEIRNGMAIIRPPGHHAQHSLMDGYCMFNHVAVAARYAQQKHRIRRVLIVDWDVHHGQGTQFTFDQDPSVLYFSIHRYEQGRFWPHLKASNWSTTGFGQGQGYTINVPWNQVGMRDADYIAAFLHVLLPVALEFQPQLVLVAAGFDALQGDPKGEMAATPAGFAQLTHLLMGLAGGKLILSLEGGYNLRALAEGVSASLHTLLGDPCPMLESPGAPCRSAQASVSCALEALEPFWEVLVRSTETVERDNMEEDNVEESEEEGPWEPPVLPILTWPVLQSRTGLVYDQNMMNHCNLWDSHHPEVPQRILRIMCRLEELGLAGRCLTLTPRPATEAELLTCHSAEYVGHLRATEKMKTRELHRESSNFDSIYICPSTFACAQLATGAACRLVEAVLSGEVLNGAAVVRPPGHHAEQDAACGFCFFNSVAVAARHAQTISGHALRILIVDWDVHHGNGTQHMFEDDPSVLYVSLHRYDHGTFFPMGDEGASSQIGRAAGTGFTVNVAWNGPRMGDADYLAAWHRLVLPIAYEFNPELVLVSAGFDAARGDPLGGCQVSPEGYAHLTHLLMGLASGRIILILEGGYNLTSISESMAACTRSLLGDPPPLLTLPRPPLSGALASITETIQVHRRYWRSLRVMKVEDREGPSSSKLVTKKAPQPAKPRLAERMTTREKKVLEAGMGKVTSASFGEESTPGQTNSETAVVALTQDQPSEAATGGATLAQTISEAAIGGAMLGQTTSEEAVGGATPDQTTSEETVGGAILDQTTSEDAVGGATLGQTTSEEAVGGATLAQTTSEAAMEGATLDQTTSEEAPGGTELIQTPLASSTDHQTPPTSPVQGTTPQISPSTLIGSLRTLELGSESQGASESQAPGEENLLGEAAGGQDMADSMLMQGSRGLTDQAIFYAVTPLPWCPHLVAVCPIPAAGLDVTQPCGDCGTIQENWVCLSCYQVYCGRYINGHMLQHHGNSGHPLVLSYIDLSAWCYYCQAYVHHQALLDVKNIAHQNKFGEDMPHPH

STAT3 in APCs = experiment: STAT3 phosphorylation and recruitment to IL-10 gene promotor in APCs; assay type: cell-based
Text: FIG. 26 is a flow chart depicting the experimental design of the in vitro antigen-presenting studies.
Human MCL cells display an enhanced expression of HDAC6. Disruption of HDAC6 in malignant B-cells inhibits their proliferation and is associated with induction of apoptosis. Pharmacologic or genetic disruption of HDAC6 in MCL cells augment their antigen-presenting capabilities leading to better T-cell activation and restoration of function of anergic Tcells in vitro. […] Disclosed herein is the rationale to use HDAC6 specific inhibitor(s) alone or in combination with STAT3 inhibitors in MCL.

[11] = tested on: antigen-specific T-cell responses; experiment: In vivo antigen-specific T-cell response to vaccination; set-up: species or system mice; details: in vivo treatment
Text: Tubastatin A-treated macrophages are better activators of […] and restore the responsiveness of anergicT-cells in vitro. […] Mechanistically, Tubastatin-A disrupt […] pathway and tip the balance towards immunogenic rather than tolerogenic macrophages.

Compound: CCCCN(Cc1ccc(C(=O)NO)cc1)C(=O)Nc1ccccc1 [Compound 5g, 4-((1-butyl-3-phenylureido)methyl)-N-hydroxybenzamide]
less potent than LBH589 in inducing murine B16 melanoma cell death [1]: approximately 100 fold | growth inhibition of B16 melanoma cells (in words) [1]: capable of inhibiting the growth | acetyl α-tubulin levels [2]: dose-dependant increase | histone H3 acetylation ([2]; increase only at 1 and 10 μM): without a concamanent elevation | acetylation of α-tubulin and histone [3]: increase acetyl-tubulin without modifying the acetylation status of Histone 3 | melanoma antigen expression at the mRNA level [4]: upregulation of melanoma antigens gp100, MART1, TYRP1 and TYRP2 | tumor growth (B16 melanoma): delayed tumor growth

Compound: Cc1[nH]c2ccccc2c1CCNCc1ccc(/C=C/C(=O)NO)cc1 [LBH589, reference compound]
GI50 [1]: 0.15 µM | IC50 ([5]; read-out: IC50 range, inhibition of proliferation): 0.01 to 0.05 µM

Compound: CCCCN(Cc1ccc(C(=O)NO)cc1)C(=O)Nc1ncccn1 [JB6-22, 4-((1-butyl-3-(pyrimidin-2-yl)ureido)methyl)-N-hydroxybenzamide]
acetylation of α-tubulin and histone [3]: increase acetyl-tubulin without modifying the acetylation status of Histone 3 | cell proliferation / viability [6]: decrease cell proliferation | cell proliferation / viability [7]: decrease cell proliferation | cell proliferation / viability (murine melanoma B16): decrease cell proliferation | cell proliferation / viability (murine melanoma SM1): decrease cell proliferation | IL-10 production [8]: inhibit IL-10 production | IL-10 production [9]: inhibit IL-10 production

Compound: COCCCN(Cc1ccc(C(=O)NO)cc1)C(=O)Nc1ccccc1 [Compound 5e, N-hydroxy-4-((1-(3-methoxypropyl)-3-phenylureido)methyl)benzamide]
GI50 [1]: 22.2 ± 1.41 µM

Compound: CN1CCc2c(c3ccccc3n2Cc2ccc(C(=O)NO)cc2)C1 [Tubastatin A, reference compound]
GI50 [1]: 40.5 ± 1.21 µM | concentration range inhibiting proliferation (in words) [5]: low micromolar range | acetylation of α-tubulin and histone [3]: increase acetyl-tubulin without modifying the acetylation status of Histone 3 | melanoma antigen expression at the mRNA level [4]: upregulation of melanoma antigens gp100, MART1, TYRP1 and TYRP2 | STAT3 phosphorylation and recruitment to the IL-10 gene promotor (STAT3 in APCs): decreased STAT3 phosphorylation and recruitment to the IL-10 gene promotor | antigen-specific T-cell responses to vaccination [11]: enhances antigen-specific T-cell responses to vaccination | tumor growth (B16 melanoma): delayed tumor growth

Compound: CCCCN(C(=O)NCc1ccc(C(=O)NO)cc1)c1ccccc1 [Compound 8a, 4-((3-butyl-3-phenylureido)methyl)-N-hydroxybenzamide]
GI50 [1]: 65.8 ± 1.19 µM

Compound: O=C(NO)c1ccc(CN(CCc2ccccc2)C(=O)Nc2ccccc2)cc1 [Compound 5h, N-hydroxy-4-((1-phenethyl-3-phenylureido)methyl)benzamide]
growth inhibition of B16 melanoma cells (in words) [1]: capable of inhibiting the growth | GI50 [1]: 15.4 ± 1.2 µM

Compound: Trichostatin A [TSA]
concentration range inhibiting proliferation (in words) [5]: low 100 nM range

Compound: CCCCN(Cc1ccc(C(=O)NO)cc1)C(=O)Nc1ccc2cn[nH]c2c1 [JB7-19, 4-((1-butyl-3-(1H-indazol-6-yl)ureido)methyl)-N-hydroxybenzamide]
acetylation of α-tubulin and histone [3]: increase acetyl-tubulin without modifying the acetylation status of Histone 3 | cell proliferation / viability [6]: decrease cell proliferation | cell proliferation / viability [7]: decrease cell proliferation | cell proliferation / viability (murine melanoma B16): decrease cell proliferation | cell proliferation / viability (murine melanoma SM1): decrease cell proliferation | IL-10 production [8]: inhibit IL-10 production | IL-10 production [9]: inhibit IL-10 production

Compound: CC(C)[C@@H]1C(=O)N(c2ccccc2)C(=O)N1Cc1ccc(C(=O)NO)cc1 [Compound 10b]
Fold Selective (HDAC1/HDAC6) ([10]; Table 2, cyclic urea compounds): 531

Compound: O=C(NO)c1ccc(CN2C(=O)N[C@@H](Cc3ccccc3)C2=O)cc1 [Compound 11a]
Fold Selective (HDAC1/HDAC6) ([10]; Table 2, cyclic urea compounds): 295

Second part, led by results:

GI50 [1]: > 100 µM
Compound: COCCCN(C(=O)NCc1ccc(C(=O)NO)cc1)c1ccccc1 [Compound 8b, N-hydroxy-4-((3-(3-methoxypropyl)-3-phenylureido)methyl)benzamide]

GI50 [1]: 30.4 ± 1.32 µM
Compound: COc1ccccc1NC(=O)N(CCc1c[nH]c2ccccc12)Cc1ccc(C(=O)NO)cc1 [Compound 5c, 4-((1-(2-(1H-indol-3-yl)ethyl)-3-(2-methoxyphenyl)ureido)methyl)-N-hydroxybenzamide]

GI50 [1]: > 100 µM
Compound: CCN(C(=O)NCc1ccc(C(=O)NO)cc1)c1ccccc1 [Compound 8c, 4-((3-ethyl-3-phenylureido)methyl)-N-hydroxybenzamide]

Fold Selective (HDAC1/HDAC6) ([10]; Table 1A): 2
Compound: COc1ccccc1NC(=O)NCc1ccc(C(N)=O)cc1 [Compound 1]

GI50 [1]: 18.4 ± 1.23 µM
Compound: COc1ccccc1NC(=O)N(CCc1ccc(O)cc1)Cc1ccc(C(=O)NO)cc1 [Compound 5d, N-hydroxy-4-((1-(4-hydroxyphenethyl)-3-(2-methoxyphenyl)ureido)methyl)-benzamide]

GI50 [1]: 75.3 ± 1.23 µM
Compound: COc1ccccc1NC(=O)N(CCCN(C)C)Cc1ccc(C(=O)NO)cc1 [Compound 5a, 4-((1-(3-(dimethylamino)propyl)-3-(2-methoxyphenyl)ureido)methyl)-N-hydroxybenzamide]

Fold Selective (HDAC1/HDAC6) ([10]; Table 2, cyclic urea compounds): 386
Compound: COc1ccccc1N1C(=O)N(Cc2ccc(C(=O)NO)cc2)C(C)(C)C1=O [Compound 10a]

GI50 [1]: > 100 µM
Compound: COc1ccccc1NC(=O)N(CCCO)Cc1ccc(C(=O)NO)cc1 [Compound 5b]
growth inhibition of B16 melanoma cells (in words) [1]: performed very poorly
